B1: HD5: enteric human α-defensin HD5 (peptide, UniProt Q01523 20-94, looked up)
Defensin alpha 5: ESLQERADEATTQKQSGEDNQDLAISFAGNGLSALRTSGSQARATCYCRTGRCATRESLSGVCEISGRLYRLCCR
modifications: Defensin-5

How the values were obtained:
[1] = test system: SARS-CoV-2 Spike/ACE2; Spike-expressing U2OS cells fusing with ACE2-producing Calu-3 cells; type: cell-based, human cells; SARS-CoV-2 Spike
[2] = test system: SARS-CoV-2 Spike protein; type: biochemical
[3] = test system: SARS-CoV-2 (USA-WA1/2020), Vero E6 cells
[4] = test system: SARS-CoV-2 Spike protein; assay: Differential scanning fluorimetry; type: binding; conditions: 1 μM Spike, PBS, Sypro Orange
[5] = test system: SARS-CoV-2 Spike-pseudotyped viruses (HIV-based), H1299 cells; type: cell-based, SARS-CoV-2 Spike (HIV-based pseudovirus); human H1299 cells
[6] = test system: SARS-CoV-2 (USA-WA1/2020), Vero E6 cells; type: cell-based
[7] = test system: human angiotensin-converting enzyme 2 (ACE2 receptor); conditions: on enterocytes; cited from earlier work
[8] = test system: SARS-CoV-2 Spike pseudovirus; conditions: cited from earlier work
[9] = micromolar concentrations of defensin

Molecule | inhibition of syncytia formation [1] | aggregation and precipitation of Spike [2] | inhibition of SARS-CoV-2 infection [3] | IC50 ([3]; USA-WA1/2020), Vero E6 cells, 24 h) [µM] | Spike destabilization relative to HNP1 [4] | destabilization of Spike protein [4, 9] | melting peak of Spike [4, 9] | effect of serum on inhibition of pseudovirus infection [5] | inhibition of infection after pre-incubation of pseudovirus [5] | pseudovirus infection efficiency after pre-treatment of cells [5] | SARS-CoV-2 infectivity [6] | binding to human ACE2 [7] | SARS-CoV-2 Spike pseudovirus infection [8]
CC[C@H](C)[C@@H]1NC(=O)CNC(=O)[C@H](CCCCN)NC(=O)CNC(=O)[C@@H]2CSSC[C@H](NC1=O)C(=O)N[C@@H](CCCNC(=N)N)C(=O)N[C@H]1CSSC[C@H](NC(=O)[C@H](CCCNC(=N)N)NC(=O)[C@@H]3CSSC[C@H](NC(=O)[C@H]([C@@H](C)CC)NC1=O)C(=O)NCC(=O)N[C@@H](CCCNC(=N)N)C(=O)NCC(=O)N[C@@H]([C@@H](C)CC)C(=O)N3)C(=O)N[C@@H]([C@@H](C)CC)C(=O)N2 [RC-101] | strongly inhibited syncytia formation | partial aggregation and precipitation | inhibited SARS-CoV-2 infection | 29 ± 7.6 | less prominent than for HNP1 | destabilized | loss of the melting peak at its normal position | serum had a negative influence on the inhibitory ability | significantly inhibited the infection | did not affect the pseudovirus infection efficiency | strongly inhibited |  | 
B1 |  |  |  |  |  |  |  |  |  |  |  | binds to human angiotensin-converting enzyme 2 | inhibition of SARS-CoV-2 Spike pseudovirus infection
